“And” between values parts separate entries of the source, which are not always exact repeats. Equal values may be shown once.
Legend:
[1] = test system: striatal D2/3R; experiment: Ex vivo autoradiography study in rats
Description: To further assess the specific binding of [^18F]FEt-AMC13 to the striatal D2/3R, two groups of rats were anesthetized, pre-treated with saline (n = 3) or raclopride (n = 3), and 26 ± 3 min later injected with a bolus of [^18F]FEt-AMC13 (4.2 ± 1.4 MBq, 0.14 ± 0.04 nmol/kg) into the penile vein. Rats were sacrificed by heart extirpation 35 min later. Brains were quickly extracted and separated into two halves along the sagittal symmetry plane or along the coronal plane spanning the thalamus.
One half of the brain (rostral or randomly taken left/right) was quickly frozen over liquid nitrogen and prepared for cutting on the microtome in the same manner as brains used for in vitro autoradiography. Slices 40 μm thick were cut, mounted on Superfrost glass slides, permitted to dry, and then directly applied to the phosphor storage screens.
(§1) Degree of D2/3R-specific binding of the tracers was characterized by BPND (as given above) or the specific binding ratio (SBR) given as target region activity/cerebellar activity - 1. Both were calculated under control conditions and in response to the raclopride challenge.

[2] = test system: D2/3R; experiment: In vitro autoradiography of rat brain slices; assay type: binding, Sprague-Dawley rats
Description: In vitro autoradiography assay was performed as previously described. Frozen brains of young (10–12 weeks of age; 300–350 g body weight) male Sprague-Dawley rats (Harlan, Netherlands) were cut at −12 °C into sagittal slices 20 μm thick using a Leica microtome, and the slices were thaw-mounted on Superfrost (70 × 22 mm, Fischer) adhesive slides. Only slices containing both striatal and cerebellar regions were used. The slides with slices mounted them were allowed to dry, then put into storage boxes with silica gel bags and stored at −80 °C.
On the day of the experiment (within 1 week from the preparation of the slices), the slides were taken out of storage and allowed to come to room temperature for 5–10 min. Then, 1–1.2 mL of incubation buffer (50 mM Tris-HCl, 5 mM KCl, 2 mM CaCl2, 2 mM MgCl2, 120 mM NaCl, pH 7.4 25 °C) was applied per slide, and the slides were pre-incubated for 15 min at room temperature. The buffer was then removed, and the slides were placed into staining jars containing radioligand solution (concentration range of 0.1–10 nM) in the incubation buffer with or without 10 μM raclopride (D2/3 antagonist) or 100 μM guanosine-5'-triphosphate sodium salt (GTP, stimulator of G-protein uncoupling from the receptors). After 35 min of incubation at 37 °C, slides were washed once with ice-cold incubation buffer (3.5 min) and dipped for 30 s into ice-cold distilled water to remove buffer salts.
After drying the slides in a stream of room-temperature air, they were exposed on phosphor storage screens for 6–10 h. The storage screens were read by Cyclone Storage Phosphor System (Packard Instruments Co.). Quantification of plate readings was done with OptiQuant software (version 3.00, Packard Instruments Co.).
as §1

decrease of striatal SBR (D2/3R-specific binding) by raclopride in vitro ([2]; 10 μM raclopride, compared to control conditions): 81%
Compound: Oc1ccc2c(c1)O[C@@H](CNCc1ccc(OCC[18F])cc1)CC2 [[^18F]FEt-AMC13]
Ex vivo autoradiography-based SBR ([1]; 1 mg/kg raclopride): 1.06 ± 0.17 | decrease of ex vivo autoradiography-based SBR ([1]; 1 mg/kg raclopride, p < 0.01): 39% | Striatum-to-cerebellum uptake ratio (ex vivo autoradiography) ([1]; 35 min post-injection, saline pre-treated rats): 2.8 and 2.81 ± 0.29 | Ex vivo autoradiography-based SBR ([1]; saline pre-treated): 1.81 ± 0.29 | mean striatum-to-cerebellum uptake ratio in vitro ([2]; rat brain slices): 4.4 | Striatal SBR % change relative to control condition, Raclopride ([2]; with 10 μM raclopride): −81% | Striatal SBR, Raclopride ([2]; with 10 μM raclopride): 0.63 ± 0.53 | Striatal SBR % change relative to control condition, GTP ([2]; with 100 μM GTP): −81% | Striatal SBR, GTP ([2]; with 100 μM GTP): 0.66 ± 0.52

— article PMC4512978, “Synthesis and evaluation in rats of homologous series of [^18F]-labeled dopamine D2/3 receptor agonists based on the 2-aminomethylchroman scaffold as potential PET tracers” (EJNMMI Research, 2015)
